Our source for the relative viability values is the supplement of paper PMC10307832.

Assay in all cases: relative viability (nuclei count vs DMSO), 5 days (fraction); higher = more cells survive
Compound in the test “Gemcitabine + Crizotinib”: Nc1ccn([C@@H]2O[C@H](CO)[C@@H](O)C2(F)F)c(=O)n1 [Gemcitabine] + C[C@@H](Oc1cc(-c2cnn(C3CCNCC3)c2)cnc1N)c1c(Cl)ccc(F)c1Cl [Crizotinib] (partner 1 µM)
The method in brief:
(§1)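 The day after seeding in 1536-well plates, lung cancer cell lines were treated by pin tool with a single drug, or with a fixed anchor-drug dose together with five library-drug doses (not always all listed) in √10 steps. After 5 days, a combined fix-and-stain solution (final 0.05% Triton X-100, 1% formaldehyde, 1 ug/ml Hoechst) was added. Nuclei counted on 4× images gave relative viability as treated counts over vehicle counts, reported as the median of duplicate plates.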

Compound in test [1]: Nc1ccn([C@@H]2O[C@H](CO)[C@@H](O)C2(F)F)c(=O)n1 [Gemcitabine] + CC(=O)c1c(C)c2cnc(Nc3ccc(N4CCNCC4)cn3)nc2n(C2CCCC2)c1=O [Palbociclib] (partner 0.5 µM)
The method in brief: as §1

Compound in the test “Gemcitabine + AZD7762”: Nc1ccn([C@@H]2O[C@H](CO)[C@@H](O)C2(F)F)c(=O)n1 [Gemcitabine] + NC(=O)Nc1cc(-c2cccc(F)c2)sc1C(=O)N[C@H]1CCCNC1 [AZD7762] (partner 0.2 µM)
The method in brief: as §1

Compound in the test “Gemcitabine + Vorinostat”: Nc1ccn([C@@H]2O[C@H](CO)[C@@H](O)C2(F)F)c(=O)n1 [Gemcitabine] + O=C(CCCCCCC(=O)Nc1ccccc1)NO [Vorinostat] (partner 1 µM)
The method in brief:
as §1

NCI-H1993: the relative viability with Gemcitabine + Crizotinib (first compound 0.001 µM) was determined as 0.89; with Gemcitabine + Crizotinib (first compound 0.003162 µM), 0.891; with Gemcitabine + Crizotinib (first compound 0.01 µM), 0.668; with Gemcitabine + Crizotinib (first compound 0.03162 µM) it was 0.549; with Gemcitabine + Crizotinib (first compound 0.1 µM) it was 0.461; in test [1] (first compound 0.001 µM) it was 0.656. For the same cell line, the relative viability turned out to be 0.575 in test [1] (first compound 0.003162 µM); 0.524 in test [1] (first compound 0.01 µM); 0.443 in test [1] (first compound 0.03162 µM); 0.379 in test [1] (first compound 0.1 µM); 0.74 in the test with Gemcitabine + AZD7762 (first compound 0.001 µM); 0.483 in the test with Gemcitabine + AZD7762 (first compound 0.003162 µM). Further, the relative viability was 0.398 with Gemcitabine + AZD7762 (first compound 0.01 µM); 0.439 with Gemcitabine + AZD7762 (first compound 0.03162 µM); 0.346 with Gemcitabine + AZD7762 (first compound 0.1 µM); 0.723 with Gemcitabine + Vorinostat (first compound 0.001 µM); 0.904 in the test with Gemcitabine + Vorinostat (first compound 0.003162 µM); 0.547 with Gemcitabine + Vorinostat (first compound 0.01 µM). Besides, the results for the relative viability in the test with Gemcitabine + Vorinostat (first compound 0.03162 µM) and in the test with Gemcitabine + Vorinostat (first compound 0.1 µM) were 0.471 and 0.317, respectively.
As for NCI-H2085, the relative viability in the test with Gemcitabine + Crizotinib (first compound 0.001 µM) worked out at 0.74; in the test with Gemcitabine + Crizotinib (first compound 0.003162 µM), 0.828; in the test with Gemcitabine + Crizotinib (first compound 0.01 µM) it was 0.699; with Gemcitabine + Crizotinib (first compound 0.03162 µM) it was 0.585; in the test with Gemcitabine + Crizotinib (first compound 0.1 µM), 0.4; in test [1] (first compound 0.001 µM), 0.441. Further, the relative viability stood at 0.433 in test [1] (first compound 0.003162 µM); 0.316 in test [1] (first compound 0.01 µM); 0.314 in test [1] (first compound 0.03162 µM); 0.3 in test [1] (first compound 0.1 µM); 0.949 with Gemcitabine + AZD7762 (first compound 0.001 µM); 0.847 with Gemcitabine + AZD7762 (first compound 0.003162 µM). Moreover, the relative viability in the test with Gemcitabine + AZD7762 (first compound 0.01 µM) was 0.613; with Gemcitabine + AZD7762 (first compound 0.03162 µM) it was 0.337; with Gemcitabine + AZD7762 (first compound 0.1 µM) it was 0.271; with Gemcitabine + Vorinostat (first compound 0.001 µM) it was 0.857; in the test with Gemcitabine + Vorinostat (first compound 0.003162 µM) it was 0.739; with Gemcitabine + Vorinostat (first compound 0.01 µM) it was 0.652. Also, the relative viability was 0.621 with Gemcitabine + Vorinostat (first compound 0.03162 µM) and 0.368 in the test with Gemcitabine + Vorinostat (first compound 0.1 µM).
Turning to NCI-H2087, the relative viability in the test with Gemcitabine + Crizotinib (first compound 0.001 µM) turned out to be 0.963; in the test with Gemcitabine + Crizotinib (first compound 0.003162 µM), 0.8; with Gemcitabine + Crizotinib (first compound 0.01 µM), 0.405; with Gemcitabine + Crizotinib (first compound 0.03162 µM), 0.133; in the test with Gemcitabine + Crizotinib (first compound 0.1 µM), 0.161; in test [1] (first compound 0.001 µM), 0.266. Further, the relative viability in test [1] (first compound 0.003162 µM) is 0.197; in test [1] (first compound 0.01 µM), 0.193; in test [1] (first compound 0.03162 µM), 0.165; in test [1] (first compound 0.1 µM), 0.136; with Gemcitabine + AZD7762 (first compound 0.001 µM), 1.1; in the test with Gemcitabine + AZD7762 (first compound 0.003162 µM), 0.145. In addition, the relative viability in the test with Gemcitabine + AZD7762 (first compound 0.01 µM) came to 0.144; with Gemcitabine + AZD7762 (first compound 0.03162 µM), 0.111; in the test with Gemcitabine + AZD7762 (first compound 0.1 µM) it was 0.104; with Gemcitabine + Vorinostat (first compound 0.001 µM), 0.862; with Gemcitabine + Vorinostat (first compound 0.003162 µM), 0.174; with Gemcitabine + Vorinostat (first compound 0.01 µM), 0.304. Moreover, the relative viability with Gemcitabine + Vorinostat (first compound 0.03162 µM) was found to be 0.0713; with Gemcitabine + Vorinostat (first compound 0.1 µM), 0.109.
Regarding NCI-H2126, the relative viability with Gemcitabine + Crizotinib (first compound 0.001 µM) is 1.04; with Gemcitabine + Crizotinib (first compound 0.003162 µM), 0.999; with Gemcitabine + Crizotinib (first compound 0.01 µM), 0.968; with Gemcitabine + Crizotinib (first compound 0.03162 µM) it was 0.644; in the test with Gemcitabine + Crizotinib (first compound 0.1 µM), 0.41; in test [1] (first compound 0.001 µM), 0.323. In addition, the relative viability in test [1] (first compound 0.003162 µM) came to 0.367; in test [1] (first compound 0.01 µM), 0.312; in test [1] (first compound 0.03162 µM), 0.29; in test [1] (first compound 0.1 µM), 0.281; in the test with Gemcitabine + AZD7762 (first compound 0.001 µM), 0.995; in the test with Gemcitabine + AZD7762 (first compound 0.003162 µM) it was 1.03. The relative viability was 0.891 in the test with Gemcitabine + AZD7762 (first compound 0.01 µM); 0.265 with Gemcitabine + AZD7762 (first compound 0.03162 µM); 0.205 with Gemcitabine + AZD7762 (first compound 0.1 µM); 0.841 with Gemcitabine + Vorinostat (first compound 0.001 µM); 0.837 with Gemcitabine + Vorinostat (first compound 0.003162 µM); 0.707 with Gemcitabine + Vorinostat (first compound 0.01 µM). The relative viability stood at 0.515 in the test with Gemcitabine + Vorinostat (first compound 0.03162 µM) and 0.275 with Gemcitabine + Vorinostat (first compound 0.1 µM).
NCI-H2170: the relative viability with Gemcitabine + Crizotinib (first compound 0.001 µM) came out at 1.39; with Gemcitabine + Crizotinib (first compound 0.003162 µM), 1.23; with Gemcitabine + Crizotinib (first compound 0.01 µM), 0.615; in the test with Gemcitabine + Crizotinib (first compound 0.03162 µM) it was 0.161; in the test with Gemcitabine + Crizotinib (first compound 0.1 µM) it was 0.155; in test [1] (first compound 0.001 µM), 0.408. The relative viability in test [1] (first compound 0.003162 µM) worked out at 0.394; in test [1] (first compound 0.01 µM) it was 0.266; in test [1] (first compound 0.03162 µM), 0.184; in test [1] (first compound 0.1 µM), 0.13; with Gemcitabine + AZD7762 (first compound 0.001 µM), 0.889; with Gemcitabine + AZD7762 (first compound 0.003162 µM), 0.771. Further, the relative viability was determined as 0.128 with Gemcitabine + AZD7762 (first compound 0.01 µM); 0.106 with Gemcitabine + AZD7762 (first compound 0.03162 µM); 0.108 with Gemcitabine + AZD7762 (first compound 0.1 µM); 0.829 with Gemcitabine + Vorinostat (first compound 0.001 µM); 0.843 in the test with Gemcitabine + Vorinostat (first compound 0.003162 µM); 0.538 with Gemcitabine + Vorinostat (first compound 0.01 µM). For the same cell line, the relative viability in the test with Gemcitabine + Vorinostat (first compound 0.03162 µM) came out at 0.113; in the test with Gemcitabine + Vorinostat (first compound 0.1 µM), 0.105.
